Measurements published in US10206907B2, “Compounds useful for the treatment of degenerative and inflammatory diseases” (GALAPAGOS NV, priority 2008, dated 2019).
pEC50, pIC50: −log10 of the molar value.

How the values were obtained:
[1] = biological target: Recombinant human JAK2 catalytic domain (Homo sapiens (Human), UniProt O60674); experiment: JAK2 inhibition assay; assay type: biochemical; conditions: semi-quantitative score
Procedure, shortened: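 Radiometric kinase reactions ran for 90 min at 30 °C and were stopped with phosphoric acid, then washed and counted by scintillation. Percent inhibition was set relative to vehicle and to 10 μM staurosporine background. IC50 was derived from dose-dilution series.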

MMP13 in SW1353 cells = experiment: OSM/IL-1β signaling assay (MMP13 levels in SW1353 cells); assay type: cell-based; conditions: Homo sapiens; SW1353 cells, OSM and IL-1β triggered, MMP13 levels 48 hours after triggering; read-out: MMP13 EC50;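 further: secreted MMP13 captured by antibody, activated with APMA and its activity read by fluorescence, inhibition scaled between vehicle-treated triggered wells (0%) and untriggered wells (100%)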
[2] = system: JAK-STAT signalling in HeLa cells; experiment: JAK-STAT signalling assay (OSM-triggered pSTAT1(2)-luciferase reporter in HeLa cells); assay type: cell-based; conditions: Homo sapiens; HeLa cells, OSM-triggered pSTAT1(2)-luciferase reporter; read-out: STAT signalling EC50
Method: HeLa cells were maintained in Dulbecco's Modified Eagle's Medium (DMEM) containing 10% heat inactivated fetal calf serum, 100 U/mL penicillin and 100 μg/mL streptomycin. HeLa cells were used at 70% confluence for transfection. 20,000 cells in 87 μL cell culture medium were transiently transfected with 40 ng pSTAT1(2)-luciferase reporter (Panomics), 8 ng of LacZ reporter as internal control reporter and 52 ng of pBSK using 0.32 μL Jet-PEI (Polyplus) as transfection reagent per well in 96-well plate format. After overnight incubation at 37° C., 10% CO2, transfection medium was removed.
40 μL of cell lysate was used to read β-galactosidase activity by adding 180 μL βGal solution (30 μl ONPG 4 mg/mL+150 μL β-Galactosidase buffer (0.06 M Na2HPO4, 0.04 M NaH2PO4, 1 mM MgCl2)) for 20 min.
Luciferase activity was measured using 40 μL cell lysate plus 40 μl of Steadylite® as described by the manufacturer (Perkin Elmer), on the Envision (Perkin Elmer).
The positive and negative controls were used to calculate z’ and ‘percent inhibition’ (PIN) values.
PIN values were plotted for compounds tested in dose-response and EC50 values were derived.

[3] = biological target: Recombinant human JAK1 catalytic domain (Homo sapiens (Human), UniProt P23458); experiment: JAK1 inhibition assay; assay type: biochemical; conditions: semi-quantitative score
Procedure, shortened: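 Radiometric assay read by scintillation counting after phosphoric-acid washes. Percent inhibition calculated from cpm relative to vehicle and 10 μM staurosporine control. IC50 derived from compound dose-dilution series.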

Recombinant human JAK2 catalytic domain, sequence (O60674 808-1132): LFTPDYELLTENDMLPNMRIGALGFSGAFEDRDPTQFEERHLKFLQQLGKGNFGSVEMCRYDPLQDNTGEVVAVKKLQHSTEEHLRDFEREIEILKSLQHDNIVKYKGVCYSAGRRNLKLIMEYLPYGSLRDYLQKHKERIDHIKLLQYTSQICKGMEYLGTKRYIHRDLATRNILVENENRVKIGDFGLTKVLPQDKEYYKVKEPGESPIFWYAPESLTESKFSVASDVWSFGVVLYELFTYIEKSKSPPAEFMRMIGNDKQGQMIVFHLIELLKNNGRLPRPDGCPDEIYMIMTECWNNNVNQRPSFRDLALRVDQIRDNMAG
Recombinant human JAK1 catalytic domain, sequence (P23458 850-1154): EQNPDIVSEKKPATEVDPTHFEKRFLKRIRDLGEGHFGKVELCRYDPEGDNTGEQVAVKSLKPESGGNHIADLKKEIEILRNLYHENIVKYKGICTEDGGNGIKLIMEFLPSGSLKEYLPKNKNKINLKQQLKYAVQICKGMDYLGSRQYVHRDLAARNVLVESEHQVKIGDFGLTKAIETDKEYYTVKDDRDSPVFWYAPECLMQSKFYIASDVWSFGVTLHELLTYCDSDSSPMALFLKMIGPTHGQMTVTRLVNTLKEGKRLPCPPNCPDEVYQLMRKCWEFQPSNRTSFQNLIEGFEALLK

| pIC50 [1] | pEC50 (MMP13 in SW1353 cells) | pEC50 [2] | pIC50 [3] | Compound |
| --- | --- | --- | --- | --- |
| 6.30 to 7.00 | < 6.00 | < 6.00 | 6.30 to 7.00 | O=C(Nc1ccc(-c2cccc3nc(NC(=O)C4CC4)nn23)cc1)c1ccc(C(F)(F)F)cc1 [Compound 22, N-(4-(2-(cyclopropanecarboxamido)-[1,2,4]triazolo[1,5-a]pyridin-5-yl)phenyl)-4-(trifluoromethyl)benzamide] |
| 6.30 to 7.00 | < 6.00 | – | 6.30 to 7.00 | O=C(Nc1nc2cccc(-c3ccc(C(=O)N4CCOCC4)cc3)n2n1)C1CC1 [Compound 24, N-(5-(4-(morpholine-4-carbonyl)phenyl)-[1,2,4]triazolo[1,5-a]pyridin-2-yl)cyclopropanecarboxamide] |
| 6.30 to 7.00 | < 6.00 | < 6.00 | 6.30 to 7.00 | O=C(NC1CCCCC1)c1ccc(-c2cccc3nc(NC(=O)C4CC4)nn23)cc1 [Compound 26, N-cyclohexyl-4-(2-(cyclopropanecarboxamido)-[1,2,4]triazolo[1,5-a]pyridin-5-yl)benzamide] |
| 6.00 to 6.30 | < 6.00 | < 6.00 | 6.30 to 7.00 | CC(C)(C)C1CCN(C(=O)c2ccc(-c3cccc4nc(NC(=O)C5CC5)nn34)cc2)CC1 [Compound 27, N-(5-(4-(4-tert-butylpiperidine-1-carbonyl)phenyl)-[1,2,4]triazolo[1,5-a]pyridin-2-yl)cyclopropanecarboxamide] |
| < 6.00 | < 6.00 | < 6.00 | 6.30 to 7.00 | O=C(Nc1nc2cccc(-c3ccc(C(=O)N4CCCNCC4)cc3)n2n1)C1CC1 [Compound 28, N-(5-(4-(1,4-diazepane-1-carbonyl)phenyl)-[1,2,4]triazolo[1,5-a]pyridin-2-yl)cyclopropanecarboxamide] |
| 6.30 to 7.00 | < 6.00 | < 6.00 | > 7.00 | COc1ccc(CN(C)C(=O)c2ccc(-c3cccc4nc(NC(=O)C5CC5)nn34)cc2)cc1 [Compound 31, 4-(2-(cyclopropanecarboxamido)-[1,2,4]triazolo[1,5-a]pyridin-5-yl)-N-(4-methoxybenzyl)-N-methylbenzamide] |
| < 6.00 | < 6.00 | – | 6.00 to 6.30 | CN1CCC(NC(=O)c2ccc(-c3cccc4nc(NC(=O)C5CC5)nn34)cc2)CC1 [Compound 32, 4-(2-(cyclopropanecarboxamido)-[1,2,4]triazolo[1,5-a]pyridin-5-yl)-N-(1-methylpiperidin-4-yl)benzamide] |
| – | 6.00 to 6.30 | < 6.00 | > 7.00 | O=C(Nc1nc2cccc(-c3ccc(NS(=O)(=O)c4ccccc4)cc3)n2n1)C1CC1 [Compound 79, N-(5-(4-(phenylsulfonamido)phenyl)-[1,2,4]triazolo[1,5-a]pyridin-2-yl)cyclopropanecarboxamide] |
| – | < 6.00 | < 6.00 | > 7.00 | CC1CCN(C(=O)c2ccc(-c3cccc4nc(NC(=O)C5CC5)nn34)cc2)CC1 [Compound 146, N-(5-(4-(4-methylpiperidine-1-carbonyl)phenyl)-[1,2,4]triazolo[1,5-a]pyridin-2-yl)cyclopropanecarboxamide] |
| – | < 6.00 | < 6.00 | > 7.00 | O=C(Nc1nc2cccc(-c3ccc(OCc4ccc(-c5nnn[nH]5)nc4)cc3)n2n1)C1CC1 [Compound 183, Cyclopropanecarboxylic Acid (5-{4-[6-(2H-tetrazol-5-yl)-pyridin-3-ylmethoxy]-phenyl}-[1,2,4]triazolo[1,5-a]pyridin-2-yl)-amide] |
| 6.30 to 7.00 | < 6.00 | < 6.00 | > 7.00 | O=C(Nc1cccnn1)c1ccc(-c2cccc3nc(NC(=O)C4CC4)nn23)cc1 [Compound 221, 4-[2-(Cyclopropanecarbonyl-amino)-[1,2,4]triazolo[1,5-a]pyridin-5-yl]-N-pyridazin-3-yl-benzamide] |
| 6.30 to 7.00 | – | < 6.00 | > 7.00 | O=C(NCc1ccc(-c2cccc3nc(NC(=O)C4CC4)nn23)cc1)C1CC1 [Compound 272, Cyclopropanecarboxylic acid 4-[2-(cyclopropanecarbonyl-amino)-[1,2,4]triazolo[1,5-a]pyridin-5-yl]-benzylamide] |
| 6.30 to 7.00 | – | < 6.00 | > 7.00 | O=C1CN(C(=O)c2ccc(-c3cccc4nc(NC(=O)C5CC5)nn34)cc2)CCN1 [Compound 277, Cyclopropanecarboxylic acid [5-[4-(3-oxo-piperazine-1-carbonyl)-phenyl]-[1,2,4]triazolo[1,5-a]pyridin-2-yl}-amide] |
| 6.30 to 7.00 | – | < 6.00 | > 7.00 | N#Cc1ccc(OC2CN(Cc3ccc(-c4cccc5nc(NC(=O)C6CC6)nn45)cc3)C2)cc1 [Compound 278, Cyclopropanecarboxylic acid (5-{4-[3-(4-cyano-phenoxy)-azetidin-1-ylmethyl]-phenyl}-[1,2,4]triazolo[1,5-a]pyridin-2-yl)-amide] |
| < 6.00 | – | < 6.00 | > 7.00 | COC1CCN(Cc2ccc(-c3cccc4nc(NC(=O)C5CC5)nn34)cc2)CC1 [Compound 281, Cyclopropanecarboxylic acid {5-[4-(4-methoxy-piperidin-1-ylmethyl)-phenyl]-[1,2,4]triazolo[1,5-a]pyridin-2-yl}-amide] |
| 6.00 to 6.30 | – | < 6.00 | > 7.00 | N#Cc1ccc(COC2CN(c3ccc(-c4cccc5nc(NC(=O)C6CC6)nn45)cc3)C2)cc1 [Compound 284, Cyclopropanecarboxylic acid (5-{4-[3-(4-cyano-benzyloxy)-azetidin-1-yl]-phenyl}-[1,2,4]triazolo[1,5-a]pyridin-2-yl)-amide] |
| – | < 6.00 | < 6.00 | > 7.00 | CC(=O)NC1CN(C(=O)c2ccc(-c3cccc4nc(NC(=O)C5CC5)nn34)cc2)C1 [Compound 287, Cyclopropanecarboxylic acid {5-[4-(3-acetylamino-azetidine-1-carbonyl)-phenyl]-[1,2,4]triazolo[1,5-a]pyridin-2-yl}-amide] |
| 6.30 to 7.00 | – | < 6.00 | > 7.00 | N#CC1CN(c2ccc(-c3cccc4nc(NC(=O)C5CC5)nn34)cc2)C1 [Compound 288, Cyclopropanecarboxylic acid {5-[4-(3-cyano-azetidin-1-yl)-phenyl]-[1,2,4]triazolo[1,5-a]pyridin-2-yl}-amide] |
| < 6.00 | – | < 6.00 | > 7.00 | COC1CCN(C(=O)c2ccc(-c3cccc4nc(NC(=O)C5CC5)nn34)cc2)CC1 [Compound 293, Cyclopropanecarboxylic acid {5-[4-(4-methoxy-piperidine-1-carbonyl)-phenyl]-[1,2,4]triazolo[1,5-a]pyridin-2-yl}-amide] |
| 6.30 to 7.00 | – | 6.00 to 6.30 | > 7.00 | N#CC1CN(Cc2ccc(-c3cccc4nc(NC(=O)C5CC5)nn34)cc2)C1 [Compound 303, Cyclopropanecarboxylic acid {5-[4-(3-cyano-azetidin-1-ylmethyl)-phenyl]-[1,2,4]triazolo[1,5-a]pyridin-2-yl}-amide] |
| < 6.00 | – | < 6.00 | > 7.00 | CC(C)(C)OC(=O)NC1CCN(Cc2ccc(-c3cccc4nc(NC(=O)C5CC5)nn34)cc2)CC1 [Compound 310] |
| 6.30 to 7.00 | – | < 6.00 | > 7.00 | O=C(Nc1nc2cccc(-c3ccc(CN4CCCC(O)C4)cc3)n2n1)C1CC1 (stereo not drawn) [Compound 313, Cyclopropanecarboxylic acid {5-[4-(3-hydroxy-piperidin-1-ylmethyl)-phenyl]-[1,2,4]triazolo[1,5-a]pyridin-2-yl}-amide] |
| < 6.00 | – | < 6.00 | 6.30 to 7.00 | O=C(Nc1nc2cccc(-c3ccc(C(=O)N4CC(N5CCOCC5)C4)cc3)n2n1)C1CC1 [Compound 326, Cyclopropanecarboxylic acid {5-[4-(3-morpholin-4-yl-azetidine-1-carbonyl)-phenyl]-[1,2,4]triazolo[1,5-a]pyridin-2-yl}-amide] |
| < 6.00 | – | < 6.00 | 6.30 to 7.00 | CN(C)C1CN(C(=O)c2ccc(-c3cccc4nc(NC(=O)C5CC5)nn34)cc2)C1 [Compound 327, Cyclopropanecarboxylic acid {5-[4-(3-dimethylamino-azetidine-1-carbonyl)-phenyl]-[1,2,4]triazolo[1,5-a]pyridin-2-yl}-amide] |
| < 6.00 | – | < 6.00 | 6.30 to 7.00 | CN(C)CC1CN(C(=O)c2ccc(-c3cccc4nc(NC(=O)C5CC5)nn34)cc2)C1 [Compound 329, Cyclopropanecarboxylic acid {5-[4-(3-dimethylaminomethyl-azetidine-1-carbonyl)-phenyl]-[1,2,4]triazolo[1,5-a]pyridin-2-yl}-amide] |
